Measurements taken from patent publication US20050282814A1, “Vasculostatic agents and methods of use thereof” (TargeGen, Inc., priority 2002, published 2005).
Counter-ions that a name gives are not always drawn.

Legend:
[1] = tested on: Lewis lung carcinoma cells; experiment: Lewis lung carcinoma lung metastases model, alone or with doxorubicin; assay type: in vivo, Balb/C mice; conditions: I.P. every 3 days for 3 cycles
Experimental: (§1) Syngeneic Lewis lung carcinoma cells were injected I.V. in order to establish lung metastases in Balb/C mice. Beginning 10 days after cells were injected, doxorubicin (3 mg/kg) and/or 6,7-bis(4-hydroxyphenyl)-pteridin-4-ylamine, sulfate salt (various doses as shown) was given I.P. every 3 days for 3 cycles. Animals were sacrificed at day 20, lungs were collected, and weighed. Net tumor burden is the weight of tumor-bearing lungs minus the average weight of normal control lungs. N=5/group, p<0.02.
as §1, with “The following experiments show the use of vasculostatic agents of the invention alone and in combination with chemotherapeutic agents for treatment of cancer. […] In the experiment shown in FIG. 2, syngeneic” for “Syngeneic”, “mgikg)” for “mg/kg)”, “salt, (compound A—various” for “salt (various”

acute myocardial infarct = experiment: Rat acute myocardial infarct model (60 min LAD occlusion, reperfusion); assay type: in vivo, Sprague-Dawley rats; conditions: 1.5 mg/kg IV at 90 min post-reperfusion, 24 hr
Experimental: A rodent model of acute myocardial infarct, in which the proximal left anterior descending coronary artery (LAD) is occluded for 60 min followed by reperfusion, was used to determine whether test agents reduced infarct size at 24 hours.
Myocardial infarcts were created in Sprague-Dawley rats (200-300 g body weight) by a 60 min occlusion of the LAD followed by LAD reperfusion. At 90 min post-reperfusion, either vehicle alone or test agents were injected IV. At 24 hr post-treatment, the ischemic zone (area at-risk, AAR) was delineated by re-ligation of the LAD followed by IV injection of alkali blue dye, after which hearts were sectioned along the short axis and stained using triphenyltetrazolium chloride to delineate viable from infarcted myocardium. Photographic images were then analyzed using morphometric software to calculate infarct area as a percent of the at-risk area.
The following studies were performed as described above, except that the timing of 3-[2,4-diamino-6-(3-hydroxyphenyl)pteridin-7-yl] phenol dihydrochloride salt administration (at 0.1 mg/kg) was varied. In one group, 3-[2,4-diamino-6-(3-hydroxyphenyl)pteridin-7-yl] phenol dihydrochloride salt was administered at both 60 and 240 min post-occlusion.
In a porcine MI model (90 min of LAD occlusion followed by complete reperfusion), a single 0.3 mg/kg IV bolus delivered 30 min post-reperfusion reduced infarct size by […] vs. controls (40% vs. 56%, N=12-13, P=0.03).

Nc1ncnc2nc(-c3ccc(O)cc3)c(-c3ccc(O)cc3)nc12 [compound A, 6,7-bis(4-hydroxyphenyl)-pteridin-4-ylamine sulfate salt]
reduction of tumor burden as a stand alone agent ([1]; lungs weighed at day 20): 25% | reduction of tumor burden in combination with doxorubicin ([1]; doxorubicin 3 mg/kg, day 20): greater than 90% | Infarct (% AAR, mean ± SEM) (acute myocardial infarct): 60.6 ± 1.8 % AAR | % Infarct reduction (acute myocardial infarct; vs vehicle): 20%
